# Reference: patent publication US4288441A, “Nicotinoyl pantetheine derivatives” (priority 1980, dated 1981)
# Where two headings read alike, the source gives them in different places.
# How the values were obtained:
# serum free fatty acid = experiment: Serum levels of free fatty acid in rats after oral administration (Table I); assay type: in vivo; settings: for Serum level of free fatty acid (FFA): oral, n=6, nicotinic acid 20 mg/kg, S-nicotinate 62.2 mg/kg (equimolar)
# Description: (§1) At the time specified in Table I, the rats were killed by pentobarbital (30 mg/kg, i.p.) anesthesia and blood was withdrawn by the carotid. The serum separated from the blood samples was assayed for free fatty acid (according to a variation of the Elphic method) and triglyceride (according to the enzyme method).
# serum triglyceride = experiment: Serum levels of triglyceride in rats after oral administration (Table I); assay type: in vivo; settings: for Serum level of triglyceride (TG): oral, n=6, nicotinic acid 20 mg/kg, S-nicotinate 62.2 mg/kg (equimolar)
# Description: as §1
# [1] = cited from earlier work
# [2] = Plasma nicotinic acid levels in rats after oral administration (Table II)
# Description: (§4) On the other hand, upon oral administration of each compound, i.e., nicotinic acid and S-nicotinate to groups of rats, the plasma nicotinic acid levels in the rats were studied. […] The other experimental conditions were the same as those described above.
# serum cholesterol = experiment: Serum cholesterol in alcoholic fatty liver rats (Table III); assay type: in vivo, male Sprague-Dawly rats; settings: 0.1 mmole/kg/day for five days, n=6
# Description: (§2) The effects of S-nicotinate were confirmed by an experiment in which alcoholic fatty liver rats were used according to the method described by A. Hosein et al., Biochemical Pharmacology, 24, page 1859, 1975.
# (§3) In this experiment, male Sprague-Dawly rats, age 6 weeks, were treated as follows. The rats received 10 ml of 40% ethanol solution per kg of body weight for 3 days (at 10:00 AM on the day of sacrifice and at 4:00 PM on the other days) by gastric intubation. S-nicotinate was suspended in 0.5 (v/v)% Tween 80 aqueous solution and administered for five days (at 9:00 AM) including the day of sacrifice. After sacrificing the rats (at 1:00 PM), the total cholesterol was measured according to the Bennie Zak method (American Journal of Clinical Pathology, 27, page 583, 1957) and free fatty acid was measured by the method described by K. Itaya et al., Journal of Lipid Research, 6, page 16, 1965.
# serum free fatty acids = experiment: Serum free fatty acids in alcoholic fatty liver rats (Table III); assay type: in vivo, male Sprague-Dawly rats; settings: 0.1 mmole/kg/day for five days, n=6
# Description: as §2, §3
# [3] = Acute toxicity in mice (Table IV); settings: mouse, in vivo
# Description: The acute toxicity test was conducted as follows. STD ddY strain mice, weight male 17.2-20.5 g, female 17.5-19.7 g, were used. The mice were fed on forage and water freely and kept at constant environmental conditions (temperature 23±1° C., relative humidity 55±5%, and 12 hours light) before the test. Samples of S-nicotinate water solutions (0.3 ml/10 g of body weight) were administered to each group (n=10) of mice in order to achieve levels of 5 g/kg and 10 g/kg, respectively.
# [4] = rat, in vivo, po
# Description: as §4
# in vivo = settings: rat, po, 62.2 mg/kg
# Description: as §4
# [5] = 30 min, * = significant difference from control
# [6] = rats, compared with nicotinic acid
compound,measurement,setting,value
O=C(O)c1cccnc1 [nicotinic acid],Serum level of free fatty acid (FFA),serum free fatty acid; [5],0.19±0.09 mEq/1
same,Serum level of free fatty acid (FFA),serum free fatty acid; 60 min,0.12±0.01 mEq/1
same,Serum level of free fatty acid (FFA),serum free fatty acid; 90 min,0.13±0.02 mEq/l
same,Serum level of free fatty acid (FFA),serum free fatty acid; 120 min,0.23±0.07 mEq/l
same,Serum level of free fatty acid (FFA),serum free fatty acid; 360 min,0.49±0.04 mEq/l
same,Serum level of triglyceride (TG),serum triglyceride; [5],35.0 ± 2.3 mg/dL
same,Serum level of triglyceride (TG),serum triglyceride; 60 min,18.0 ± 0.7 mg/dL
same,Serum level of triglyceride (TG),serum triglyceride; 90 min,21.2 ± 2.5 mg/dL
same,Serum level of triglyceride (TG),serum triglyceride; 120 min,26.2 ± 1.1 mg/dL
same,Serum level of triglyceride (TG),serum triglyceride; 360 min,32.5 ± 3.1 mg/dL
same,Effect on blood lipids,"[1]; cholesterol, triglycerides, phospholipids and free fatty acids in blood, well known","reduces the levels of lipids such as cholesterol, triglycerides, phospholipids and free fatty acids in blood"
same,Side-effects at higher doses,"[1]; clinical treatment, higher doses","flushing of the face, itching and gastrointestinal impediments"
same,"Nicotinic acid level in the blood, in words","[1]; clinical treatment, normal dosage levels",rapidly decreases
same,Vasodilator effect,[1]; well known,vasodilator effect
same,"Plasma nicotinic acid level, in words","[2]; 10 mg/kg nicotinic acid, at 60 minutes",almost a trace amount or was not detectable
same,Plasma nicotinic acid level,"[2]; 360 min, oral, nicotinic acid 20 mg/kg, S-nicotinate 62.2 mg/kg",0 ± 0 µg/mL
same,Cmax at 0.5 h,"[2]; rat, plasma, po, 10 mg/kg",8300 ng/mL
same,Tmax,"[2]; rat, plasma, po, 10 mg/kg",30 min
same,concentration at 0.5 h,"[2]; rat, plasma, po, 20 mg/kg",42800 ± 1200 ng/mL
same,concentration at 1 h,"[2]; rat, plasma, po, 20 mg/kg",22200 ± 1600 ng/mL
same,concentration at 1.5 h,"[2]; rat, plasma, po, 20 mg/kg",6700 ± 1600 ng/mL
same,concentration at 2 h,"[2]; rat, plasma, po, 20 mg/kg",400 ± 300 ng/mL
same,"Plasma nicotinic acid at 120 minutes, in words","[2]; rats, 120 min after oral administration",essentially disappeared
same,Rebound effect in the plasma nicotinic acid level,"[2]; rats, compared with S-nicotinate",far larger rebound effect
pantothenolnicotinate,Effect on blood cholesterol level,[1]; Japanese published patent specification No. 40-18109,able to decrease the blood cholesterol level
"CC(C)(CO)C(O)C(=O)NCCC(=O)NCCSC(=O)c1cccnc1 (stereo not shown) [S-nicotinate, 2,4-dihydroxy-N-[2-((2-mercaptoethyl)carbamoyl)ethyl]-3,3-dimethylbutyramide S-nicotinate]",Serum level of free fatty acid (FFA),serum free fatty acid; [5],0.13±0.01 mEq/1
same,Serum level of free fatty acid (FFA),serum free fatty acid; 60 min,0.13±0.01 mEq/1
same,Serum level of free fatty acid (FFA),serum free fatty acid; 90 min,0.15±0.03 mEq/l
same,Serum level of free fatty acid (FFA),serum free fatty acid; 120 min,0.20±0.04 mEq/l
same,Serum level of free fatty acid (FFA),serum free fatty acid; 360 min,0.46±0.05 mEq/l
same,"Effect on serum level of free fatty acid, in words",serum free fatty acid; [6],decreases serum levels of free fatty acid and triglyceride in rats as well as nicotinic acid does
same,Serum level of triglyceride (TG),serum triglyceride; [5],43.7 ± 5.7 mg/dL
same,Serum level of triglyceride (TG),serum triglyceride; 60 min,22.2 ± 1.1 mg/dL
same,Serum level of triglyceride (TG),serum triglyceride; 90 min,25.5 ± 3.3 mg/dL
same,Serum level of triglyceride (TG),serum triglyceride; 120 min,29.2 ± 1.6 mg/dL
same,Serum level of triglyceride (TG),serum triglyceride; 360 min,33.5 ± 8.0 mg/dL
same,"Effect on serum level of triglyceride, in words",serum triglyceride; [6],decreases serum levels of free fatty acid and triglyceride in rats as well as nicotinic acid does
same,Serum cholesterol,serum cholesterol,79.0 ± 4.23 mg/dL
same,Serum free fatty acids,serum free fatty acids,236±21.33 μEq/l
same,LD50,[3]; iv,1600 mg/kg
same,LD50,[3]; po,> 10000 mg/kg
same,"Plasma nicotinic acid at 120 minutes, in words",[4],essentially disappeared
same,concentration at 0.5 h,in vivo,5200 ± 300 ng/mL
same,concentration at 1 h,in vivo,3300 ± 300 ng/mL
same,concentration at 1.5 h,in vivo,700 ± 400 ng/mL
same,"Activity in maintaining a satisfactory level of free nicotinic acid in the blood, in words","[2]; S-nicotinate itself vs nicotinic acid, inferred from experimental results",has the same activity as nicotinic acid itself
